The values below come from PubChem BioAssay AID312 (DTP/NCI, 2004).

Several values for one entry are separate records, joined by “and”; a condition that tells them apart may be missing. Identical values can stand only once. Inconclusive results and toxic doses are left out.

This experiment relates to BDF1 mice, C1498 leukemia ip, median survival T/C. Briefly: NCI In Vivo Anticancer Drug Screen. Data for tumor model C1498 Myeloid Leukemia (intraperitoneal) in B6D2F1 (BDF1) mice. The following applies: endpoint: median survival time, higher = longer survival. As to the method:
The antitumor activity of compounds was measured in mice bearing transplantable tumors. Survival or tumor size were measured and the results are expressed as the measurement made in the treated group (T) divided by the measurement made in the vehicle treated control group (C). The tumor model used in this assay is C1498 Myeloid Leukemia (intraperitoneal) in B6D2F1 (BDF1) mice

[1] abbreviates: dose: 25.0 mg/kg/injection, schedule: Q01DX010 (ip), vehicle: saline.
Where [2] appears, read: dose: 50.0 mg/kg/injection, schedule: Q01DX010 (ip), vehicle: saline.
The mark [3] stands for this setting: dose: 100.0 mg/kg/injection, schedule: Q01DX010 (ip), vehicle: saline.
[4] abbreviates: dose: 3.13 mg/kg/injection, schedule: Q01DX010 (ip), vehicle: saline.
Setting [5] is: dose: 6.25 mg/kg/injection, schedule: Q01DX010 (ip), vehicle: saline.
Where [6] appears, read: dose: 12.5 mg/kg/injection, schedule: Q01DX010 (ip), vehicle: saline.
Setting [7] is: dose: 10.0 mg/kg/injection, schedule: Q01DX010 (ip), vehicle: saline.
Where [8] appears, read: dose: 200.0 mg/kg/injection, schedule: Q01DX010 (ip), vehicle: saline.
[9] abbreviates: dose: 31.3 mg/kg/injection, schedule: Q01DX010 (ip), vehicle: saline.
[10] abbreviates: dose: 62.5 mg/kg/injection, schedule: Q01DX010 (ip), vehicle: saline.
Where [11] appears, read: dose: 125.0 mg/kg/injection, schedule: Q01DX010 (ip), vehicle: saline.
The mark [12] stands for this setting: dose: 250.0 mg/kg/injection, schedule: Q01DX010 (ip), vehicle: saline.

As for `CC[C@]1(O)C[C@H]2CN(CCc3c([nH]c4ccccc34)[C@@](C(=O)OC)(c3cc4c(cc3OC)N(C=O)[C@H]3[C@@](O)(C(=O)OC)[C@H](OC(C)=O)[C@]5(CC)C=CCN6CC[C@]43[C@@H]65)C2)C1`, the T/C is, setting by setting: (dose: 1.0 mg/kg/injection, schedule: Q04DX003 (ip), vehicle: saline) 112 % of control; (dose: 1.5 mg/kg/injection, schedule: Q04DX003 (ip), vehicle: saline) 115 % of control; (dose: 2.0 mg/kg/injection, schedule: Q04DX003 (ip), vehicle: saline) 118 % of control.

For `COc1cc(-c2ccc(Nc3ccccc3C(=O)O)c(OC)c2)ccc1Nc1ccccc1C(=O)O`, the T/C was 112 % of control under setting [1], 104 % of control under setting [2] and 100 % of control under setting [3].

Turning to `COC(=O)C[C@](O)(CCCC(C)(C)O)C(=O)O[C@@H]1C(OC)=C[C@]23CCCN2CCc2cc4c(cc2[C@H]13)OCO4`, the T/C was 96 % of control (dose: 1.5 mg/kg/injection, schedule: Q01DX009 (ip), vehicle: acid diluted with saline) and 91 % of control (dose: 2.0 mg/kg/injection, schedule: Q01DX009 (ip), vehicle: acid diluted with saline).

`C=CC(CN1CC1)OC(C)=O` (stereo not drawn): the T/C (dose: 2.0 mg/kg/injection, schedule: Q01DX010 (ip), vehicle: saline) is 104 % of control; the T/C (dose: 4.0 mg/kg/injection, schedule: Q01DX010 (ip), vehicle: saline) is 122 % of control; the T/C (dose: 16.0 mg/kg/injection, schedule: Q01DX010 (ip), vehicle: saline) is 104 % of control.

Turning to `C[C@]12C=CC(=O)C=C1CC[C@@H]1[C@@H]2[C@@H](O)C[C@@]2(C)[C@H]1CC[C@]2(O)C(=O)CO`, the T/C reads like this: (dose: 12.5 mg/kg/injection, schedule: Q01DX010 (sc), vehicle: steriod suspending solution) 92 % of control; (dose: 25.0 mg/kg/injection, schedule: Q01DX010 (sc), vehicle: steriod suspending solution) 88 % of control; (dose: 50.0 mg/kg/injection, schedule: Q01DX010 (sc), vehicle: steriod suspending solution) 92 % of control; (dose: 100.0 mg/kg/injection, schedule: Q01DX010 (sc), vehicle: steriod suspending solution) 92 % of control.

For `C[C@H]1C(=O)O[C@@H]2CCN3CC=C(COC(=O)[C@](C)(O)[C@@]1(C)O)[C@H]23`, the T/C is, setting by setting: under setting [4], 100 % of control and 103 % of control; under setting [5], 100 % of control; under setting [6], 95 % of control and 107 % of control; under setting [1], 95 % of control and 96 % of control.

For the compound `COc1cccc2c1C(=O)c1c(O)c3c(c(O)c1C2=O)C[C@@](O)(C(C)=O)C[C@@H]3OC1CC(N)C(O)C(C)O1` (stereo partly drawn), the T/C is 107 % of control and 115 % of control (dose: 1.25 mg/kg/injection, schedule: Q01DX010 (ip), vehicle: other); 92 % of control and 111 % of control (dose: 2.5 mg/kg/injection, schedule: Q01DX010 (ip), vehicle: other); 118 % of control (dose: 156.0 micrograms/kg/injection, schedule: Q01DX010 (ip), vehicle: saline); 118 % of control (dose: 313.0 micrograms/kg/injection, schedule: Q01DX010 (ip), vehicle: saline).

As to `O[C@H](CN1CC1)[C@@H](O)CN1CC1`, the T/C (dose: 62.5 micrograms/kg/injection, schedule: Q01DX010 (ip), vehicle: saline) is 123 % of control and the T/C (dose: 500.0 micrograms/kg/injection, schedule: Q01DX010 (ip), vehicle: saline) is 173 % of control.

`O=c1c(O)cccc2cc(O)c(O)c(O)c12`: the T/C by setting is: under setting [1], 90 % of control; under setting [2], 100 % of control.

In the case of `CSc1ncnc2nc[nH]c12`, the T/C runs as follows: under setting [6], 100 % of control; under setting [1], 95 % of control; under setting [2], 100 % of control; under setting [3], 100 % of control.

Turning to `Cn1c(N)nc2nc[nH]c2c1=S`, the T/C is 100 % of control under setting [7]; 104 % of control (dose: 20.0 mg/kg/injection, schedule: Q01DX010 (ip), vehicle: saline); 109 % of control (dose: 40.0 mg/kg/injection, schedule: Q01DX010 (ip), vehicle: saline); 109 % of control (dose: 80.0 mg/kg/injection, schedule: Q01DX010 (ip), vehicle: saline).

Regarding `CS(=O)(=O)OCCCCOS(C)(=O)=O`, the T/C under setting [5] is 95 % of control; the T/C under setting [6] is 95 % of control and 90 % of control; the T/C under setting [1] is 113 % of control; the T/C under setting [2] is 109 % of control and 119 % of control.

In the case of `CN(C)c1nc(N(C)C)nc(N(C)C)n1`, the T/C (dose: 18.8 mg/kg/injection, schedule: Q01DX010 (ip), vehicle: saline) is 100 % of control and 109 % of control; the T/C (dose: 37.5 mg/kg/injection, schedule: Q01DX010 (ip), vehicle: saline) was 104 % of control and 118 % of control; the T/C (dose: 75.0 mg/kg/injection, schedule: Q01DX010 (ip), vehicle: saline) is 100 % of control and 109 % of control; the T/C (dose: 150.0 mg/kg/injection, schedule: Q01DX010 (ip), vehicle: saline) was 109 % of control and 118 % of control.

In the case of `O=C(O)c1[nH]c(=O)[nH]c(=O)c1F`, the T/C runs as follows: (dose: 1.25 mg/kg/injection, schedule: Q01DX010 (ip), vehicle: saline) 116 % of control and 118 % of control; (dose: 2.5 mg/kg/injection, schedule: Q01DX010 (ip), vehicle: saline) 122 % of control; (dose: 5.0 mg/kg/injection, schedule: Q01DX010 (ip), vehicle: saline) 158 % of control and 163 % of control; under setting [7], 95 % of control and 109 % of control.

Turning to `O=c1cnn(C2OC(CO)C(O)C2O)c(=O)[nH]1` (stereo not drawn), the T/C runs as follows: under setting [8], 104 % of control; (dose: 400.0 mg/kg/injection, schedule: Q01DX010 (ip), vehicle: saline) 100 % of control; (dose: 800.0 mg/kg/injection, schedule: Q01DX010 (ip), vehicle: saline) 100 % of control.

For `CS(=O)(=O)OCC(O)C(O)C(O)C(O)COS(C)(=O)=O` (stereo not drawn), the T/C under setting [1] is 100 % of control (2×) and 104 % of control; the T/C under setting [2] was 95 % of control and 100 % of control and 108 % of control; the T/C under setting [3] is 100 % of control (2×) and 109 % of control; the T/C under setting [8] was 104 % of control.

With `O=NN(CCCl)C(=O)NCCCl`, the T/C (dose: 30.0 mg/kg/injection, schedule: Q01DX001 (ip), vehicle: saline + alcohol) was 420 % of control and the T/C (dose: 35.0 mg/kg/injection, schedule: Q01DX001 (ip), vehicle: saline + alcohol) is 247 % of control.

`O=C(Nc1ccc(C2=NCCN2)cc1)c1ccc(C(=O)Nc2ccc(C3=NCCN3)cc2)c([N+](=O)[O-])c1`: the T/C was 96 % of control and 119 % of control (dose: 6.0 mg/kg/injection, schedule: Q01DX010 (ip), vehicle: saline); 100 % of control (dose: 8.0 mg/kg/injection, schedule: Q01DX010 (ip), vehicle: saline); 103 % of control (dose: 18.0 mg/kg/injection, schedule: Q01DX010 (ip), vehicle: saline).

Consider `Nc1c(Br)cc2c(c1Br)Cc1cc([N+](=O)[O-])ccc1-2`, for which the T/C is 91 % of control under setting [9]; 91 % of control and 100 % of control under setting [10]; 91 % of control under setting [11]; 91 % of control and 95 % of control under setting [12]; 95 % of control (dose: 500.0 mg/kg/injection, schedule: Q01DX010 (ip), vehicle: saline).

For the compound `O=[n+]1c2c(n([O-])c3ccccc31)-c1cccc3cccc-2c13`, the T/C is 90 % of control under setting [4], 90 % of control under setting [5], 90 % of control under setting [6] and 90 % of control under setting [1].

Consider `COc1ccc2c(c1OC)C(=O)O[C@@H]2[C@H]1c2c(cc3c(c2OC)OCO3)CCN1C`, for which the T/C is, setting by setting: (dose: 15.6 mg/kg/injection, schedule: Q01DX010 (ip), vehicle: saline) 100 % of control; under setting [9], 95 % of control and 100 % of control (2×); under setting [10], 87 % of control and 90 % of control (2×); under setting [11], 86 % of control and 87 % of control and 90 % of control; under setting [12], 90 % of control.
